# Reference: patent publication US20130065227A1, “METHODS OF INCREASING MACROPINOCYTOSIS IN CANCER CELLS” (priority 2010, published 2013)
# Key:
# RWPE1 = assay: Uptake of AS1411 by macropinocytosis (MP); type: cell-based; conditions: Non-cancer, prostate epithelial
# Text: (§1) It has recently been discovered that AS1411 can stimulate macropinocytosis (MP) in cancer cells and this finding was verified by several different methods and in multiple cancer cell lines (Table 1).
# RCC4 = assay: Uptake of AS1411 by macropinocytosis (MP); type: cell-based; conditions: Cancer, renal cell
# Text: as §1
# CHO = assay: Uptake of AS1411 by macropinocytosis (MP); type: cell-based; conditions: Non-cancer, hamster ovary
# Text: as §1
# A549 = assay: Uptake of AS1411 by macropinocytosis (MP); type: cell-based; conditions: Cancer, non-small cell lung
# Text: as §1
# BEAS2B = assay: Uptake of AS1411 by macropinocytosis (MP); type: cell-based; conditions: Non-cancer, lung epithelial
# Text: as §1
# MCF10A [1] = assay: Uptake of AS1411 by macropinocytosis (MP); type: cell-based, human; conditions: Non-cancer, breast epithelial
# Text: as §1
# cancer cells = assay: Stimulation of macropinocytosis / induced uptake; type: cell-based
# Text: A number of additional G-rich oligonucleotides were obtained and used to evaluate whether or not macropinocytosis was increased in cancer cells using the methodology described herein. For example, the following sequences were used:
# In addition, the G-rich oligonucleotides disclosed in Dapic et al. (2003, Nuc. Acids Res.,31:2097 -107; KS-A though KS-I) and the G-rich oligonucleotides (e.g., telomere homologs, GT oligonucleotides, Stat3 binders, Dz13, and triplex oligonucleotides with aptameric effects) disclosed in Bates et al. (2009, Exp. Mol. Path., 86:151-64) and references therein are shown to stimulate macropinocytosis in cancer cells.
# Furthermore, due to the unique properties of MPsomes, delivery by MP leads to increased functional activity. Thus, treatment with AS1411, followed by administration of an anticancer siRNA, for example, leads to a synergistic increase in anticancer effects without harming normal cells. Another strategy to potentiate the effects of AS1411 is to combine it with agents that promote MP and activation of Rac. This leads to increased macropinocytic uptake of AS1411 and/or enhanced methuosis.
# several cell lines = assay: Annexin V / PI flow cytometry to assess cell death; type: cell-based
# Method: (A) Trypan blue staining of U937 leukemia cells showing percentage of dead cells (trypan blue positive) over time. (B) U937 cells were untreated (Un) or treated with 1 μM AS1411 (1411) or control oligonucleotide (Ctrl) for 72 h. DNA was extracted, electrophoresed on an agarose gel and stained with ethidium bromide to probe DNA laddering. As a positive control, […] were treated with UV irradiation to induce apoptosis as previously described. […] (D) U937 cells treated as described for panel B, followed by protein extraction and immunoblotting (IB) to detect PARP cleavage and Caspase-3 activation. (E) DU145 prostate cancer cells were incubated with 10 μM of AS1411 for 24 h, or irradiated with UV (300 J/m^2 with UV Stratalinker 2400, Strategene), then cultured in fresh medium for 6 h. Assessment of cell death was carried out by flow cytometry to detect Annexin V-FITC binding and PI staining.
# MCF10A [2] = assay: Cell response to AS1411; type: cell-based, human; conditions: Non-cancer, breast epithelial
# Text: as §1
# Hs27 [3] = assay: Cell response to AS1411; type: cell-based, human; conditions: Non-cancer, skin fibroblasts
# Text: as §1
# [4] = test system: DU145 CD24^lo/CD44^hi cells; assay: Spheroid culture; type: cell-based; conditions: 10 μM AS1411, drug replenished weekly
# Method: DU145 CD24^lo/CD44^hi cells were sorted by FACS, plated for sphere culture, and treated with or without 10 μM AS1411. Media was changed and drug replenished weekly. Plates were monitored for dissolution of spheres. Once dissolution was observed, serial photographs were taken of each well and the total number of spheres counted.
# DU145 = assay: Uptake of AS1411 by macropinocytosis (MP); type: cell-based; conditions: DU145; Cancer, prostate
# Method: (§2) FIG. 2 are graphs showing that AS1411 is internalized by different endocytic mechanisms in DU145 cancer cells and in non-malignant Hs27 cells. DU145 or Hs27 cells were plated 18 h before uptake analysis. Cells were pre-treated as described with inhibitor (gray histogram) or the corresponding vehicle control (black histogram) before addition of 10 μM FL-AS1411 and incubation at 37° C. for 2 h. After incubation, cells were harvested and analyzed by flow cytometry. Pre-treatment conditions were at 37° C. with: (Panel A) 5 μM Cytochalasin D for 30 min; (Panel B) 80 μM Dynasore for 30 min; or (Panel C) 3 mM amiloride for 1 h. All experiments were repeated at least three times and representative data are shown. Solid gray histograms represent background autofluorescence of unstained cells.
# (§3) To analyze uptake of the oligodeoxynucleotides or dextran-10K (macropinocytic marker) by flow cytometry, 2×10^5 cells in fresh supplemented culture medium (2.5 ml) were plated into 6-well plates for 18 h. After complete adhesion, the cells were incubated with 5′-FAM tagged oligodeoxynucleotides or Alexa Fluor 488 tagged dextran-10K and incubated as indicated in the Description of the Drawings. Cells were washed once with ice-cold PBS, incubated with 1 μg/ml 7-amino-actinomycin D (7-AAD) for 5 min on ice or 1 μg/ml propidium iodide (PI), and washed twice with ice-cold PBS. […]
# Hs27 [5] = assay: Uptake of AS1411 by macropinocytosis (MP); type: cell-based, human; conditions: Non-cancer, skin fibroblasts
# Method: as §2, §3
substance,measurement,setting,value
5′-d(GGTGGTGGTGGTTGTGGTGGTGGTGG) [AS1411],Update by MP?,RWPE1,No
same,Update by MP?,RCC4,Yes
same,Update by MP?,CHO,No
same,Update by MP?,A549,Yes
same,Update by MP?,BEAS2B,Low
same,Update by MP?,MCF10A [1],Low
same,induced uptake from the culture medium after pre-treatment,cancer cells,"induced uptake of dextran, AS1411, or transferrin (by MP)"
same,Annexin V / PI quadrant in which cells appear,several cell lines,Annexin V-positive/propidium iodide (PI)-positive quadrant (indicative of necrosis)
same,Cells respond?,MCF10A [2],No
same,Cells respond?,Hs27 [3],No
same,effect on spheroids,[4],can cause disintegration of spheroids
same,Update by MP?,DU145,Yes
same,Update by MP?,Hs27 [5],No
